Data: paper PMC3022637, “The modulation of TRPM7 currents by nafamostat mesilate depends directly upon extracellular concentrations of divalent cations” (Molecular Brain, 2010)

What was measured:
[1] = biological target: T1, TRPM7 current in cultured mouse hippocampal neurons (Mus musculus, UniProt Q923J1); assay: Whole-cell voltage clamp of TRPM7 currents in cultured hippocampal neurons (low divalent cation-induced or compound-activated); assay type: cell-based
T1 construct: supports the substantial involvement of endogenous TRPM7 channels in the responses of neurons; endogenous in cells; host or cells: primary cultured hippocampal neurons from embryonic Swiss mice
T1 sequence (Q923J1 whole entry): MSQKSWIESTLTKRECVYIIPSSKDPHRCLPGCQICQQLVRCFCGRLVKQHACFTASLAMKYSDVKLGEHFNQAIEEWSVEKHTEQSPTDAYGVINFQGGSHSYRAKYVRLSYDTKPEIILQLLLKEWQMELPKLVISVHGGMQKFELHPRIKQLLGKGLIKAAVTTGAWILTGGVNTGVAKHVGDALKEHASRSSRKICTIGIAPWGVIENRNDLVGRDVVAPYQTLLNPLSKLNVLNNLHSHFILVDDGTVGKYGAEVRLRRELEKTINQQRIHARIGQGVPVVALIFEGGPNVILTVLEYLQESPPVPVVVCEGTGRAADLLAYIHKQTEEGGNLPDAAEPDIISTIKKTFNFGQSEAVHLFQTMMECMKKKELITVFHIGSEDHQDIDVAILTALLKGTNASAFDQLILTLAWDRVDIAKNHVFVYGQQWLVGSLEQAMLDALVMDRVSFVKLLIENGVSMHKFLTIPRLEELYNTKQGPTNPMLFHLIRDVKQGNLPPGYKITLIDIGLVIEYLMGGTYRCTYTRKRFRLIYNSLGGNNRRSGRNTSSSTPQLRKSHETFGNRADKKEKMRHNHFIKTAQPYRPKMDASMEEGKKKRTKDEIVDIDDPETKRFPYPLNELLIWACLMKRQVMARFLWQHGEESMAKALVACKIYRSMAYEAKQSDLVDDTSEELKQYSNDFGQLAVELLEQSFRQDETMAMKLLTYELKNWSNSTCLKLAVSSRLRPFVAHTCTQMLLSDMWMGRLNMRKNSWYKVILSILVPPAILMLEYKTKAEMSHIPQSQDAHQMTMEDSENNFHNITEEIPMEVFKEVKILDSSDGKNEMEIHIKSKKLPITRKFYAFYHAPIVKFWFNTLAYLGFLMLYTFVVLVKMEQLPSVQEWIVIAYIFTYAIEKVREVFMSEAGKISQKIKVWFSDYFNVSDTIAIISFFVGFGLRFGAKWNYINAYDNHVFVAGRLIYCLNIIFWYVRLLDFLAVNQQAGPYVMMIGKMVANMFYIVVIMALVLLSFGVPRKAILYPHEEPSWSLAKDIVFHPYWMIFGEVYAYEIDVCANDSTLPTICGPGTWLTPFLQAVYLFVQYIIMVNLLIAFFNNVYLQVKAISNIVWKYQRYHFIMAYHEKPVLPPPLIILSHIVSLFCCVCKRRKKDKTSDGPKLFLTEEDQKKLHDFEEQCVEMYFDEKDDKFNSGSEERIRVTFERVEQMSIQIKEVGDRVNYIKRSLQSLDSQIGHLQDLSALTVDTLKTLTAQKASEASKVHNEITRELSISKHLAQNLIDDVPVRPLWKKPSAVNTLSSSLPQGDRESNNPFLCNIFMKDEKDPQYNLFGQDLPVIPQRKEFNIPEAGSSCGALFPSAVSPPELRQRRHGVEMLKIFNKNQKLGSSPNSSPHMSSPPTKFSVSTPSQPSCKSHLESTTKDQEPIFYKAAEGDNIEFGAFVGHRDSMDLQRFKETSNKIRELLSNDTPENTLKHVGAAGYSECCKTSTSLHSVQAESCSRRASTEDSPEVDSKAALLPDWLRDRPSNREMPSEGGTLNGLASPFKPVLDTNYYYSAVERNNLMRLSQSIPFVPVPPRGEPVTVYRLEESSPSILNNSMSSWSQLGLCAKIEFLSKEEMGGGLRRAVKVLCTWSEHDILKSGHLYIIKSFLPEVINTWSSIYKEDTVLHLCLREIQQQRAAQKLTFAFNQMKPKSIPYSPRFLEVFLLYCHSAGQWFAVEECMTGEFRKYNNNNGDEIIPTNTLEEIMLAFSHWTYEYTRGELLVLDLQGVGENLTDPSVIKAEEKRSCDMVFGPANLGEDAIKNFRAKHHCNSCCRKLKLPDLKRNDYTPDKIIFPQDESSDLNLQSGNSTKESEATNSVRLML

human TRPM7 channels = system: human TRPM7 channels; design: method as in PMID 18719395; conditions: pH 7.4 to 4.0; cited from earlier work
[2] = 200 μM, current evoked by 0.1 mM Ca2+ and 0.1 mM Mg2+

Row | SMILES | potentiation of TRPM7 current, pre-exposed ([1]; 200 μM) | reduction of IC50 for monovalent cation block on decreasing pH from 7.4 to 4.0 (human TRPM7 channels) [fold] | block of TRPM7 current, co-applied [1, 2] | other results
1 | CCOC(=O)c1ccc(OC(=O)CCCCCNC(=N)N)cc1 [Gabexate, gabexate] | failed to potentiate | – | – | inhibition at 200 µM ([1]; 200 μM, read-out: inhibition of TRPM7 current, co-applied): 45 ± 3%
2 | [Ca+2] [Ca^2+] | – | 410 | – | –
3 | N=C(N)Nc1ccc(C(=O)O)cc1 [p-GBA, p-guanidinobenzoic acid] | – | – | – | block of TRPM7 current, co-applied ([1]; 1 mM (p-GBA up to 1 mM), low divalent-evoked current): neither inhibited; I compound / I control, co-applied ([1]; 1 mM, normalized current): 94 ± 3%; I compound / I control, pre-exposed ([1]; 1 mM, normalized current): 96 ± 1%; potentiation of TRPM7 current, pre-exposed ([1]; up to 1 mM): nor potentiated
4 | [Mg+2] [Mg^2+] | – | 510 | – | –
5 | Cn1cc(NC(=O)c2cc(NC(=O)CN=C(N)N)cn2C)cc1C(=O)NCCC(=N)N [netropsin] | nor potentiated | – | neither blocked | –
6 | CC(=O)N[C@@H](CC(C)C)C(=O)N[C@@H](CC(C)C)C(=O)N[C@H](C=O)CCCNC(=N)N [Leupeptin, leupeptin] | no inhibitory or potentiating effects | – | no inhibitory or potentiating effects | –
